Laboratory results taken from ChEMBL document CHEMBL1201862, “PubChem BioAssay data set” (2004).
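Tested at 5 concentrations; 48 h exposure; 96-well plates; endpoints linearly interpolated, else capped at highest concentration. Here, GI50 denotes the concentration required for 50% inhibition of growth.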 The source made the active and inactive calls. No stated cut-off is given here; in the data, active = GI50 up to about 1.1 µM and inactive = higher.

Legend:
Assay in all cases: NCI tumour cell line growth inhibition, 48 h
MDA-N = system: MDA-N
OVCAR-5 = system: OVCAR-5
HOP-92 = system: HOP-92
OVCAR-8 = system: OVCAR-8
PC-3 = system: PC-3
HCT-116 = system: HCT-116
786-0 = system: 786-0
NCI-H522 = system: NCI-H522
T47D = system: T47D
SNB-75 = system: SNB-75
M14 = system: M14
SF-268 = system: SF-268
UACC-257 = system: UACC-257
SN12C = system: SN12C
MCF7 = system: MCF7
K562 = system: K562
RPMI-8226 = system: RPMI-8226
SK-MEL-28 = system: SK-MEL-28
HCT-15 = system: HCT-15
HL-60 = system: HL-60

SMILES | GI50 (MDA-N) | GI50 (OVCAR-5) | GI50 (HOP-92) | GI50 (OVCAR-8) | GI50 (PC-3) | GI50 (HCT-116) | GI50 (786-0) | GI50 (NCI-H522) | GI50 (T47D) | GI50 (SNB-75) | GI50 (M14) | GI50 (SF-268) | GI50 (UACC-257) | GI50 (SN12C) | GI50 (MCF7) | GI50 (K562) | GI50 (RPMI-8226) | GI50 (SK-MEL-28) | GI50 (HCT-15) [µM] | GI50 (HL-60)
O=[N+]([O-])/C(C(Cl)=C(Cl)Cl)=C(\N1CCCCC1)n1nnc2ccccc21 | 20.8 µM (inactive) | 17.8 µM (inactive) | 19.3 µM (inactive) | 19.9 µM (inactive) | 17.6 µM (inactive) | 18.9 µM (inactive) | 18.5 µM (inactive) | 20.3 µM (inactive) | 33.3 µM (inactive) | 25.6 µM (inactive) | 17.3 µM (inactive) | 20.8 µM (inactive) | 17.9 µM (inactive) | 18.3 µM (inactive) | 25.4 µM (inactive) | 8.41 µM (inactive) | 17.2 µM (inactive) | 22.3 µM (inactive) | 17.8 | 
O=C1CCCC2C3CC(CN12)C1CCCCN1C3.[O-][Cl+3]([O-])([O-])O (configuration not stated) | > 100 µM (inactive) | > 100 µM (inactive) | > 100 µM (inactive) | > 100 µM (inactive) | > 100 µM (inactive) | > 100 µM (inactive) | > 100 µM (inactive) | > 100 µM (inactive) | > 100 µM (inactive) |  | > 100 µM (inactive) | > 100 µM (inactive) | > 100 µM (inactive) | > 100 µM (inactive) | > 100 µM (inactive) |  | > 100 µM (inactive) | > 100 µM (inactive) | > 100 | > 100 µM (inactive)
CNC(=S)N(C1CCCCC1)C1CCCCC1 | > 100 µM (inactive) | > 100 µM (inactive) | 50.8 µM (inactive) | > 100 µM (inactive) | 35.1 µM (inactive) | 54 µM (inactive) | > 100 µM (inactive) |  | 44 µM (inactive) | 65.3 µM (inactive) | > 100 µM (inactive) | > 100 µM (inactive) | 34.1 µM (inactive) | > 100 µM (inactive) | 54.8 µM (inactive) | 29.9 µM (inactive) | 35.7 µM (inactive) | > 100 µM (inactive) | > 100 | 27.4 µM (inactive)
Cc1cc(-c2nc3cccc(O)c3s2)ccc1N | 31.3 µM (inactive) |  | 43.8 µM (inactive) | 24.2 µM (inactive) | 27.7 µM (inactive) | 27.3 µM (inactive) | 34.1 µM (inactive) |  | 62.5 µM (inactive) | > 100 µM (inactive) | 16.2 µM (inactive) | 17.6 µM (inactive) | 37.2 µM (inactive) | 39.9 µM (inactive) | 12.5 µM (inactive) | 45.4 µM (inactive) | 45.2 µM (inactive) | 51.4 µM (inactive) | 35 | 22.3 µM (inactive)
C=C1C(=O)O[C@H]2C[C@@H]1C(=O)CC(C)CCCC(C)=CCC[C@@]2(C)O (some centres not stated) | > 25 µM (inactive) | > 25 µM (inactive) | > 25 µM (inactive) | > 25 µM (inactive) | > 25 µM (inactive) | > 25 µM (inactive) | > 25 µM (inactive) | > 25 µM (inactive) | > 25 µM (inactive) |  | > 25 µM (inactive) | > 25 µM (inactive) | > 25 µM (inactive) | > 25 µM (inactive) | > 25 µM (inactive) |  | > 25 µM (inactive) | > 25 µM (inactive) | > 25 | > 25 µM (inactive)
c1ccc(/C(=N/Nc2nc3ccccc3s2)C2CCCCC2)nc1 | 14.4 µM (inactive) | 3.26 µM (inactive) | 7.48 µM (inactive) | 4.16 µM (inactive) | 6.11 µM (inactive) | 0.296 µM (active) | 7.29 µM (inactive) | 2.76 µM (inactive) | 0.299 µM (active) |  | 10.3 µM (inactive) | 10.6 µM (inactive) | 4.32 µM (inactive) | 9.44 µM (inactive) | 1.23 µM (inactive) | 7.05 µM (inactive) | 3.94 µM (inactive) | 10.4 µM (inactive) | 2.77 | 
O=C(/C=C(\N=P(c1ccccc1)(c1ccccc1)c1ccccc1)C(F)(F)C(F)(F)C(F)(F)C(F)(F)C(F)(F)C(F)(F)C(F)(F)F)c1ccccc1 | > 100 µM (inactive) | > 100 µM (inactive) | > 100 µM (inactive) |  | > 100 µM (inactive) | > 100 µM (inactive) | > 100 µM (inactive) |  | > 100 µM (inactive) | > 100 µM (inactive) | > 100 µM (inactive) | > 100 µM (inactive) | > 100 µM (inactive) | > 100 µM (inactive) | > 100 µM (inactive) | > 100 µM (inactive) | > 100 µM (inactive) | > 100 µM (inactive) | > 100 | > 100 µM (inactive)
CC(O[Si](c1ccccc1)(c1ccccc1)C(C)(C)C)[C@H](NC(=O)OC(C)(C)C)C(=O)O[Si](c1ccccc1)(c1ccccc1)C(C)(C)C (some centres not stated) | 18.8 µM (inactive) | 15.9 µM (inactive) | 10.9 µM (inactive) | 15.6 µM (inactive) | 8.38 µM (inactive) | 11.2 µM (inactive) | 13.2 µM (inactive) |  | 5.41 µM (inactive) | 15.4 µM (inactive) | 15.7 µM (inactive) | 14.3 µM (inactive) | 14.9 µM (inactive) |  | 17.9 µM (inactive) | 13.2 µM (inactive) | 10.9 µM (inactive) | 14.3 µM (inactive) | 5.24 | 14.4 µM (inactive)
Cc1ccc(Nc2nc(C)c(C(=O)CC(=O)C(=O)Nc3c(C)cccc3C(C)(C)C)s2)cc1 | > 100 µM (inactive) | > 100 µM (inactive) | > 100 µM (inactive) | 79.3 µM (inactive) | > 100 µM (inactive) | > 100 µM (inactive) | 75.9 µM (inactive) | > 100 µM (inactive) | > 100 µM (inactive) |  | > 100 µM (inactive) | > 100 µM (inactive) | > 100 µM (inactive) | > 100 µM (inactive) | > 100 µM (inactive) | > 100 µM (inactive) | > 100 µM (inactive) |  | > 100 | > 100 µM (inactive)
CCC/N=C1\S/C(=C/c2ccc(OC)c(OC)c2)C(=O)N1c1ccccc1 | > 100 µM (inactive) | 44.9 µM (inactive) | 33.1 µM (inactive) | 82.2 µM (inactive) | 43.8 µM (inactive) | 24 µM (inactive) | 13.1 µM (inactive) | 40.6 µM (inactive) | > 100 µM (inactive) |  | > 100 µM (inactive) | 15.1 µM (inactive) | 76.7 µM (inactive) | 54.8 µM (inactive) | > 100 µM (inactive) | > 100 µM (inactive) | 43.2 µM (inactive) | > 100 µM (inactive) | > 100 | 59.8 µM (inactive)
CCCCCCNC(=O)c1cc(C#Cc2cc(OC)ccc2OC)ccc1OC | 3.22 µM (inactive) | > 100 µM (inactive) | 9.77 µM (inactive) | > 100 µM (inactive) | 62.1 µM (inactive) |  | > 100 µM (inactive) | 6.15 µM (inactive) | 2.31 µM (inactive) |  | 17.5 µM (inactive) | > 100 µM (inactive) | > 100 µM (inactive) |  | > 100 µM (inactive) | 3.92 µM (inactive) | 8.28 µM (inactive) | 3.04 µM (inactive) | 7.48 | 
COc1cccc(C2c3cc4c(cc3OC(O)C2C)OCO4)c1OC (configuration not stated) | 8.67 µM (inactive) | 16.2 µM (inactive) | 1.66 µM (inactive) | 3.06 µM (inactive) | 4.49 µM (inactive) | 2.35 µM (inactive) | 3.29 µM (inactive) |  | 3.36 µM (inactive) | 2.36 µM (inactive) | 11.1 µM (inactive) | 7.36 µM (inactive) | 7.18 µM (inactive) | 4.78 µM (inactive) | 5.28 µM (inactive) | 2.7 µM (inactive) | 2.13 µM (inactive) | 13.3 µM (inactive) | 2.1 | 1.87 µM (inactive)
O=c1[nH]c(=O)n(C2COC(CO)C2O)cc1F (configuration not stated) | 25.2 µM (inactive) | > 100 µM (inactive) | 50.8 µM (inactive) | 57 µM (inactive) | 36.1 µM (inactive) | 9.98 µM (inactive) | 70 µM (inactive) | 43.7 µM (inactive) | 50.6 µM (inactive) | 31 µM (inactive) | 50.6 µM (inactive) | 64.3 µM (inactive) | 60.4 µM (inactive) | 28.3 µM (inactive) | 8.41 µM (inactive) | 56.5 µM (inactive) | 36.5 µM (inactive) | 26.7 µM (inactive) | 16.4 | 
CN1C/C(=C\c2cccs2)C(O)/C(=C/c2cccs2)C1 (configuration not stated) | > 100 µM (inactive) | > 100 µM (inactive) | 20.4 µM (inactive) | > 100 µM (inactive) | > 100 µM (inactive) | 72.4 µM (inactive) | > 100 µM (inactive) | 35.1 µM (inactive) | 25.8 µM (inactive) |  | > 100 µM (inactive) | > 100 µM (inactive) | 89.5 µM (inactive) | 74.5 µM (inactive) | 48.5 µM (inactive) | 57.8 µM (inactive) | 20.2 µM (inactive) | > 100 µM (inactive) | > 100 | 
COC(=O)c1c2c(cc3c1CC1(Cc4cc5c(c(C=O)c4C1)CCCC5)C3)CCCC2 (configuration not stated) | 89.3 µM (inactive) | > 100 µM (inactive) | 56.6 µM (inactive) | 87.5 µM (inactive) | 40.5 µM (inactive) | 23.3 µM (inactive) | > 100 µM (inactive) | 32.1 µM (inactive) | 45.3 µM (inactive) |  | > 100 µM (inactive) |  | 50.5 µM (inactive) | 70 µM (inactive) | 27 µM (inactive) | 33.2 µM (inactive) | > 100 µM (inactive) |  | 34.4 | 30 µM (inactive)
